In patent US20010053351A1, “Inhibition of GSK-3 beta” (priority 1999, published 2001):

Columns and labels:
GSK-3 = details: cited from earlier work
GSK-3β = GSK-3β (Homo sapiens, UniProt P49841); details: significant effects at concentrations of VPA similar to those attained clinically; cited from earlier work
GSK-3α = GSK-3α (Homo sapiens, UniProt P49840); details: significant effects at concentrations of VPA similar to those attained clinically; cited from earlier work
GSK-3β−/− cells = experiment: Cell death / viability (trypan blue) of GSK-3β-/- embryonic fibroblast cell lines; format: cell-based, mouse; details: anisomycin 0-5 μg/ml, sorbitol 0-1000 mM, daunorubicin 0-1000 ng/ml
Source text: To probe the mechanism by which GSK-3β impacted TNF cytotoxicity, immortalized mouse embryonic fibroblast (MEF) cell lines from two wild-type ([…]), two GSK-3β heterozygous (+/−1 and +/−2) and two GSK-3β homozygous mutant (−/−1 and −/−2) embryos were derived from embryos.
We next examined the sensitivity of the lines to TNF-induced cell death. […] As a reference, TNF receptor-associated factor 2 (TRAF2) homozygous mutant MEFs were used in the same assay.
Viability is expressed normalized to untreated controls. Independently derived GSK-3β^+/+ EF cell clones are indicated by +/+1 and +/+2; GSK-3β^+/− by +/−1 and +/−2; and GSK-3β^−/− by −/−1, and −/−2. […] Cells were uniformly treated with cycloheximide (CHX, 0.25 μg/ml). […] (C) Sensitivity of GSK-3β^−/− EF cells to various apoptotic stimuli. EF cells were stimulated with anisomycin (0-5 μg/ml), sorbitol (0-1000 mM), daunorubicin (0-1000 ng/ml), and γ-irradiation (0-50 Gy). All experiments were repeated at least three times, and the data (as a percentage) is shown as the mean ± standard error.

Sequence of GSK-3β (P49841 whole entry): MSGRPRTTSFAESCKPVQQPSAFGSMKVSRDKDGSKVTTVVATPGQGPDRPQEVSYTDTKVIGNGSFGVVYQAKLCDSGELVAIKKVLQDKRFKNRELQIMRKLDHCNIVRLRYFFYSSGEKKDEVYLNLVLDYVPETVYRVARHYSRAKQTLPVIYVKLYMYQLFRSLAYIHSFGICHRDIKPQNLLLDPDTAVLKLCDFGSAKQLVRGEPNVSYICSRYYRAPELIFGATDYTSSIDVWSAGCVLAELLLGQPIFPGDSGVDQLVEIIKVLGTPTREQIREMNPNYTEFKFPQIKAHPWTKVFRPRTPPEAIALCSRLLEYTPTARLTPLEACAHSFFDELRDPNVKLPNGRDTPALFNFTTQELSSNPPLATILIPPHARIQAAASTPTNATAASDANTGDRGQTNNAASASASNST
Sequence of GSK-3α (P49840 whole entry, species assumed): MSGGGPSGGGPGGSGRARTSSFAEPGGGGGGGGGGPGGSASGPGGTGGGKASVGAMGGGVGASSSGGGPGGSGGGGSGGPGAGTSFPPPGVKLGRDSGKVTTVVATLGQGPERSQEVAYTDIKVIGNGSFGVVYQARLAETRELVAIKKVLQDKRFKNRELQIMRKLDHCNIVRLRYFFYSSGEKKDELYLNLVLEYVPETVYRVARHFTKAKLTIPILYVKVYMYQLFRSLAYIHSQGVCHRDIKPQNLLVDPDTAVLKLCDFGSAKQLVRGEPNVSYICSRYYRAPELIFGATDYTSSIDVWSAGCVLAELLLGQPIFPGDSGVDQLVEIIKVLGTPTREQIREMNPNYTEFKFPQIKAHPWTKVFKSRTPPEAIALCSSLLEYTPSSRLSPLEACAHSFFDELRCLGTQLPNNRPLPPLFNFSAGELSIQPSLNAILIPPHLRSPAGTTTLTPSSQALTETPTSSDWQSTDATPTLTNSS

Compound	decrease of GSK-3 activity (GSK-3)	susceptibility of GSK-3β-deficient cells to apoptotic stimuli (GSK-3β−/− cells)	further results
CC(C)NCC(O)c1ccc(O)c(O)c1 (stereo not shown) [Isoproterenol]	approximately 50%		
CCCC(CCC)C(=O)O [VPA, Valproic acid]			inhibition of GSK-3β (GSK-3β): inhibits; inhibition of GSK-3α (GSK-3α): inhibits
COc1ccc(C[C@H]2NC[C@H](O)[C@H]2OC(C)=O)cc1 [anisomycin]		normal susceptibility	
COc1cccc2c1C(=O)c1c(O)c3c(c(O)c1C2=O)C[C@@](O)(C(C)=O)C[C@@H]3O[C@H]1C[C@H](N)[C@H](O)[C@H](C)O1 [daunorubicin]		normal susceptibility	
OC[C@@H](O)[C@@H](O)[C@H](O)[C@@H](O)CO [sorbitol]		normal susceptibility	
insulin	approximately 50%		
